Experiment: Dissolution (release of caffeine) of 3D printed tablets, paddle method, Sotax AT 7smart
Format: physicochemical
Details: 900 ml 0.1 n HCl, 37° C., paddle 100 rpm, UV 272 nm
Experimental: Release of caffeine as active ingredient is determined using the Sotax Freisetzungsapparatur Sotax AT 7smart (Sotax AG, Lörrach, Germany) […]
Each sample is collected in a test tube with the automatic sampler.
Device: Release apparatus: Sotax AT 7smart (Sotax AG, Lörrach, Germany), Photometer Agilent 8453 (Agilent Technologies, Waldbronn, Germany)
Temperature of medium: 37° C.
Cuvette layer thickness: 10 mm
FIG. 31 illustrates results achieved by dissolution measurement of 3D printed caffeine containing tablets in 900 ml of 0.1 n HCl. […] To dissolute and release the full API amount of a filled tablet (100%) needs 360 minutes for entire release of the comprising API, while a 3D printed tablet, 50% filled, already releases 100% of the comprising API amount after app 30 minutes in the dissolution equipment. The time measured is […] dissolving pure crystalline caffeine particles tested in comparison by 100% after app 5 minutes.

Compound: Cn1c(=O)c2c(ncn2C)n(C)c1=O [pure crystalline caffeine, Caffeine]
- time to release 100% (full amount) of API caffeine: ~5 min

— US20220105041A1, “METHOD FOR MANUFACTURING A SOLID ADMINISTRATION FORM AND SOLID ADMINISTRATION” (priority 2019, published 2022)
